Where only a bound is given, the exact number is not on record here.

In one series the test system is Molm-14-ITD-F691L. Put plainly: Cell viability GI50, Molm-14-ITD-F691L. It is filed as cell-based. As to conditions: Homo sapiens; 72 hours. Here is the method: (§1) More specifically, cells were cultured to confluence in RPMI medium supplemented with 10% fetal bovine serum and 1× Penicillin-Streptomycin (Gibco™). Cells were plated at 5,000 cells/well in 96 well plates. After 24-hour incubation at 37° C. in a 5% CO2 incubator, compounds diluted in the same media were added to the indicated final concentration and allowed to incubate at 37° C. in a 5% CO2 incubator for 72 hours. Viability was determined using CellTiter-Blue® Cell Viability Assay (Promega, Madison, WI) with absorbance readings at 570 nm performed on a Cytation™ 5 Cell Imaging Multi-Mode Reader (BioTek) 3 hours after addition. Appropriate vehicle and cell-free controls were included. GI50 readings were confirmed by two scientists on two separate days.
(§2) Scholl et al. (2020), supra. Accordingly, Compound HSK205 was evaluated against Molm-14 cell lines that harbor resistant mutations commonly found in the clinic, FLT3-ITD-D835Y and F691L (FIG. 15).

Another series concerns phosphorylated FLT3. The series is described as follows: Western blot, FLT3 target engagement in Molm-14 cells. Type of series: cell-based, human. As to conditions: Molm-14 cells treated for 2 hours. Here is the method:
(§3) Acute myeloid leukemia cells (Molm-14) were incubated with various concentrations of compound as specified. Cells were collected and lysed, and protein concentrations were quantified relative to BSA standards. After protein denaturation, proteins were separated via SDS-PAGE electrophoresis and transferred to NC membranes. After blocking, overnight incubation with specific primary antibodies, and room temperature incubation for 2 hours with peroxidase-conjugated secondary antibodies, peroxidase activity was detected with SuperSignal West Pico reagents (Thermo Scientific) using a CCD camera LAS-4000 (Fujifilm). Bands were normalized using housekeeping gene, Actin. Values reported represent the means of triplicates and error bars represent SD. All specific antibodies were purchased from Cell Signaling.
Additionally, FLT3 target engagement in Molm-14 cells was evaluated to confirm the FLT3 inhibition seen in the preliminary kinase screen of Example 4 (Table 1). Cells were treated for 2 hours, harvested, and subsequently analyzed.
Background: Immunoblotting shows a protein as a band on a membrane.

The target in another series is T1, FLT3-ITD (Homo sapiens, UniProt P36888).
T1 sequence (P36888 1-993): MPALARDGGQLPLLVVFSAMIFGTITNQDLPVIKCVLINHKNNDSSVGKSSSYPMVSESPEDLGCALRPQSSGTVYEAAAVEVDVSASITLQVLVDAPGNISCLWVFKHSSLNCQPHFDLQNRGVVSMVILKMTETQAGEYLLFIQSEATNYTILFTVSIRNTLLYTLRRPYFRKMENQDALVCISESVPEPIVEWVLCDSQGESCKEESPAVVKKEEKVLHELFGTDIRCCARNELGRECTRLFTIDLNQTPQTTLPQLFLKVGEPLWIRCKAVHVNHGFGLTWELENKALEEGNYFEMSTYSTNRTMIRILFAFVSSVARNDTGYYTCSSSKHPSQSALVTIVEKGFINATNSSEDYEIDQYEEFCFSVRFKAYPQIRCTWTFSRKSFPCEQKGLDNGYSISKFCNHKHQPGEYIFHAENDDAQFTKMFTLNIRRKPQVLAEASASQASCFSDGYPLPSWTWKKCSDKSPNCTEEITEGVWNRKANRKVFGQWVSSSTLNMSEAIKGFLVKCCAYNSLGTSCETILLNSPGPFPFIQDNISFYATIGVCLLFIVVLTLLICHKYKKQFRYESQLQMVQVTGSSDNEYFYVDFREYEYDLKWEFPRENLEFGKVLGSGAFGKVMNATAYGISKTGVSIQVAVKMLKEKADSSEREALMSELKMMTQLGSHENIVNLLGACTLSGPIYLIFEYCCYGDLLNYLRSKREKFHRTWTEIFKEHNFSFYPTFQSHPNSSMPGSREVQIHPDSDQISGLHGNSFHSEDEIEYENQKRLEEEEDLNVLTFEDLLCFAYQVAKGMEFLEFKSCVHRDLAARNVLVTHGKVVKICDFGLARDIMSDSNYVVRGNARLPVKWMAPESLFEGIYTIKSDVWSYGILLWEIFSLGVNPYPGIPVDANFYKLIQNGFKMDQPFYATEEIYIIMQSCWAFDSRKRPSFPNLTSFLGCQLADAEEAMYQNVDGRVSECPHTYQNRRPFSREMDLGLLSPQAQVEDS
The series is described as follows: FLT3-ITD enzyme inhibition, 10-dose IC50 (Reaction Biology). It is filed as biochemical. As to conditions: 10 μM ATP.

The subject of another series is Molm 14-ITD-D835Y. The series is described as follows: Cell viability GI50, Molm 14-ITD-D835Y. It is filed as cell-based. Conditions: Homo sapiens; 72 hours. Here is the method: as §1, §2
The test system of the next series is Molm-14 cells (FLT3-ITD). Put plainly: AML cell line growth inhibition (CellTiter-Blue), 50 nM. As to conditions: Homo sapiens, 50 nM inhibitor conc., means of triplicates, read-out: Percent Inhibition (%) Molm-14 growth. It is filed as cell-based. Here is the method:
With the amide kinase inhibitor library established, kinase inhibition and AML cell line (Molm-14, which harbors FLT3-ITD) growth inhibition were analyzed (Table 1). More specifically, Haspin and FLT3 inhibition were evaluated in-house via ADP Glo Kinase Assay (Promega, Madison, WI). […] Values reported are means of triplicates.
as §1

The test system of series [1] is histone H3 (Thr3) phosphorylation by haspin. The series is described as follows: Western blot, histone H3 (Thr3) phosphorylation by haspin in Molm-14 cells. Type of series: cell-based, human. Conditions: 24 hours, HSK205 5, 20 or 100 nM, gilteritinib 100 nM. The procedure: Whether Compound HSK205 does indeed inhibit haspin in AML cells was then evaluated, and immunoblotting was performed to confirm inhibition of histone H3 (Thr3)phosphorylation by haspin (FIG. 13A). […] The samples were subsequently analyzed for the phosphorylation of histone H3 (Thr3).
as §3

For a further series, the system named is DNA. The series is described as follows: DNA intercalation assay. Conditions: doses from 1 mM to 10 nM. The procedure:
FIG. 16 is a graph of data from a DNA intercalation assay. […] Data was fitted to a non-linear regression equation using GraphPad Prism 9.0 software (each data point represents the mean of triplicates).
To move compounds forward for further development, DNA intercalation assays were conducted to eliminate compounds with high affinity for DNA.

What is called GI50 is the concentration at which growth is held to half of that of the control. A low value points to greater sensitivity of the cells. The term IC50 denotes the concentration that inhibits the measured activity by half. Read a high IC50 as weaker potency in that assay. Usually inhibition stands for the change of the read-out against control, counted positive when it falls. In the case of `Cc1c[nH]c(CNC(=O)c2ccc(-c3nc4ccc5[nH]ncc5c4c4c3CCCC4)cc2)n1` [Compound HSK205], the GI50 turned out to be 2.2 nM in the series on Molm-14-ITD-F691L and 4.3 nM in the series with Molm 14-ITD-D835Y. Further, the “phosphorylated FLT3” value with phosphorylated FLT3 was “reduction of phosphorylated FLT3”. On FLT3-ITD, the IC50 was less than 0.5 nM. Moreover, the inhibition at 0.05 µM in the series with Molm-14 cells (FLT3-ITD) came out at 96%. The “phosphorylation of histone H3 (Thr3)” value in series [1] was “effective in reducing phosphyorlation of histone H3 (Thr3)”. Moreover, the DNA intercalation result with DNA is listed as “did not intercalate into DNA”.

Source of the values: patent publication US20250320203A1, “4-(3H-PYRAZOLO[4,3-F]QUINOLIN-7-YL)-N-(2-(DIMETHYLAMINO)ETHYL)BENZAMIDE- OR HYDROXAMIC ACID COMPOUNDS, COMPOSITIONS, AND METHODS OF USE” (Purdue Research Foundation, priority 2022, published 2025).
